Experiment: Relaxation dynamics of hyperpolarized [1-13C]pyruvate (build-up time Tb and T1)
Details: 0.4 μT
Text: In addition, the relaxation dynamics of the [1-^13C]pyruvate were also studied.
In addition, relaxation dynamics at earth field and 1.8 T are about the same as a non-fluorinated SABRE catalyst T1=28.9±1.6 s and 66.5±7 s, respectively.

CC(=O)C(=O)O [[1-^13C]pyruvate, sodium [1-^13C]pyruvate]
total P13C (bound+free) build-up time Tb (Example 7: Example 4 catalyst, DMSO, methanol): 6.6 ± 3.0 s
total P13C (bound+free) build-up time Tb (Example 25: Example 4 catalyst, DMSO, NFBME/MeOD fluorous mixture): 3.0 ± 0.8 s
total P13C (bound+free) build-up time Tb (Example 31: Example 4 catalyst, DMSO, CD3OD/Novec 7100): 3.8 ± 0.6 s
total P13C (bound+free) build-up time Tb (Example 32: Example 4 catalyst, PTMSO, CD3OD/Novec 7100): 8.9 ± 2.5 s

Reference: patent publication US20240216900A1, “SABRE CATALYSTS CONTAINING FLUORINATED CARBON CHAINS FOR DELIVERY OF METAL-FREE MRI CONTRAST AGENTS” (The U.S.A., as represented by the Secretary, Department of …, priority 2022, published 2024)
